The subject of series [1] is db/db mice. Briefly: Oral glucose tolerance in db/db mice. Format: in vivo. The settings on record: 50 mg/kg once daily for 14 days, oral glucose challenge 2 g/kg BW. The method, then:
Referring to FIG. 5, db/db mice (6-8 weeks old) were treated with Compound 2 (50 mg/kg) once daily for 14 days. On day 14 the animals were fasted overnight and gavaged with Compound 2, one hour prior to oral glucose challenge (2 g/kg BW).

A further series concerns 3T3-L1 adipocytes. Briefly: Basal glucose uptake in 3T3-L1 adipocytes (14C-2-deoxyglucose). It counts as cell-based. The settings on record: 1.0 μM, 72 hours treatment, 10 minutes uptake without insulin, vs 0.1% DMSO. The method, then:
Referring to FIG. 1, 3T3-L1 fibroblasts were differentiated to adipocytes by a cocktail containing insulin, dexamethasone and IBMX for four days. Fully differentiated adipocytes were treated with the compounds (1.0 μM concentrations) or 0.1% DMSO for 72 hours and then glucose uptake was carried out for 10 minutes without any addition of insulin. Basal uptake was initiated by addition of radioactive ^14C-2-deoxyglucose and after 10 minutes they were washed with cold PBS mixed with cold glucose. At the end, the cells were solubilized with 0.1% SDS and counted in a Beckman scintillation counter.

Another series concerns 3T3-L1 fibroblasts. Briefly: Adipogenesis in 3T3-L1 fibroblasts (Oil-red-O staining). It counts as cell-based. The settings on record: stained on day 11, rosiglitazone 10 μM positive control. How it is done: All known PPAR-γ agonists (both TZD or non-TZDs) induce differentiation in the fibroblast cells. The adipogenic potential of these compounds are correlated with their affinity to this receptor. Referring to FIG. 3, to check whether the Compounds 1 and 2 have any affinity to these receptors, 3T3-L1 fibroblasts were treated with either DMSO control or rosiglitazone (all at 10 μM concentrations) as positive control or these two compounds for several days at different concentrations. On day 11th, the differentiated adipocytes were stained with Oil-red-O (Sigma) and washed thoroughly to remove the unbound stain. The stained differentiated adipocytes were visualized under high-resolution microscope.

Series [2] deals with LPS-induced NO production. Briefly: Inhibition of LPS-induced NO production in RAW 264.7 macrophages (Griess nitrite). It counts as cell-based, mouse. The settings on record: RAW 264.7, 30 μM, LPS 200 ng/mL + IFN-γ 10 U/mL, 18 hours. How it is done: Mouse macrophages (RAW 264.7) were plated in 6-well plate (2 million cells/well), and incubated at 37° C. with LPS (200 ng/mL+IFN-γ 10 U/mL) for 18 hours. Nitrite levels were measured by the Griess reagent. All of the compounds were tested at 30 μM concentrations.

Series [3] concerns db/db (spontaneous model) diabetic mice. Briefly: Blood glucose lowering in db/db diabetic mice. Format: in vivo. The settings on record: oral, 50 mg/kg body weight, daily. How it is done:
Referring to FIG. 4, ten week old male db/db (spontaneous model) diabetic mice were orally treated with compound 1 at a dose of 50 mg/kg body weight and blood glucose was monitored by one touch glucometer every day morning before the next dose.

The next series concerns TNFα. Briefly: TNFα inhibition in LPS-challenged human PBMC (ELISA). It counts as cell-based. The settings on record: 10 μM, LPS 100 ng/mL for 20 hours. The method, then: Referring to FIG. 7, human PBMC cells were cultured and incubated with Compound 1 and 2 at 10 μM concentration. Cells (1×10^6/mL) were challenged with lipopolysaccharides (LPS) at a concentration of (100 ng/mL) for 20 hours. TNF was measured by ELISA.

In series [4] the test system is db/db mice. Briefly: Serum cholesterol in db/db mice. It counts as in vivo. The settings on record: 50 mg/kg once daily for 14 days. How it is done: Referring to FIG. 6, db/db mice (6-8 weeks old) were treated with Compound 2 (50 mg/kg) once daily for 14 days. At the end of the study serum cholesterol was measured by a calorimetric method.
For series [5], the system named is human liver cells (HepG2). Briefly: Cytotoxicity in HepG2 cells (MTS viability). The settings on record: 24 hours, up to 100 μM.
Experimental: To find the cytotoxic effect of this class of new thiazolidinedione compounds (TZD), they were incubated in HepG2 cells for 24 hours and then the viability was measured by colorimetric reactions with MTS.

Experimental findings from patent US7781464B2, “Heterocyclic diphenyl ethers” (Bexel Pharmaceuticals, Inc., priority 2003, dated 2010) are described below.

As to “{4-[4-(2,4-Dioxo-thiazolidin-5-ylmethyl)-phenoxy]-phenyl}-acetic acid disodium salt [Compound 2]”, the glucose tolerance result in the series on db/db mice [1] is “improvement in glucose tolerance”. Further, the basal glucose uptake entry in the series with 3T3-L1 adipocytes was “induced glucose uptake over basal levels”. For the same molecule, the “adipogenesis (differentiation of fibroblasts, Oil-red-O)” value in the series on 3T3-L1 fibroblasts is on record as “non-adipogenic”. Moreover, the “inhibition of LPS-induced NO production (nitrite concentration)” value in series [2] is reported as “inhibition of LPS-induced NO production”. Besides, the blood glucose result in series [3] is reported as “blood glucose lowering effect”. Also, the “inhibition of pro-inflammatory cytokines (TNF by ELISA)” value with TNFα is listed as “inhibit major pro-inflammatory cytokines”.
In the case of `O=C(O)Cc1ccc(Oc2ccc(CC3SC(=O)NC3=O)cc2)cc1` (stereo not drawn) [Compound 1, {4-[4-(2,4-Dioxothiazolidin-5-ylmethyl)phenoxy]-phenyl}acetic acid], in the series on 3T3-L1 adipocytes, the basal glucose uptake entry is given as “induced glucose uptake over basal levels”. The “adipogenesis (differentiation of fibroblasts, Oil-red-O)” value with 3T3-L1 fibroblasts was “non-adipogenic”. Further, the serum cholesterol entry in the series with db/db mice [4] is recorded as “serum cholesterol lowering effect”. Further, the “cytotoxicity (viability by MTS)” value in series [5] is listed as “did not show any toxicity”. For the same molecule, the “inhibition of LPS-induced NO production (nitrite concentration)” value in series [2] is on record as “inhibition of LPS-induced NO production”. Besides, in the series on TNFα, the “inhibition of pro-inflammatory cytokines (TNF by ELISA)” value was “inhibit major pro-inflammatory cytokines”.
